Results as given in ChEMBL document CHEMBL6087465, “Design, Synthesis, and Antitumor Activity Evaluation of 2-Phenylthiazole-5-Carboxylic Acid Derivatives Targeting Transactivation Response RNA-Binding Protein 2” (J Med Chem, 2025).
Active and inactive are the calls of the source. No cut-off for these calls is given here.

Experiments:
[1] = tested on: SK-HEP1; test: Antiproliferative activity against human SK-HEP1 cells cultured as 3D cells assessed as inhibition of cell growth at 10 uM incubated for 72 hrs by CellTiter-Lumi assay; assay type: functional, cell-based
[2] = tested on: HCCLM3; test: Antiproliferative activity against human HCCLM3 cells cultured as 3D cells assessed as inhibition of cell growth at 10 uM incubated for 72 hrs by CellTiter-Lumi assay; assay type: functional, cell-based
[3] = tested on: HCCLM3; test: Antiproliferative activity against human HCCLM3 cells cultured as 3D cells assessed as inhibition of colony formation at 25 uM incubated for 21 days by 3D soft-agar based microscopic analysis; assay type: functional, cell-based; settings: time 21.0 day
[4] = tested on: SK-HEP1; test: Inhibition of cell migration in human SK-HEP1 cells at 10 uM incubated for 24 hrs by wound healing assay; assay type: functional, cell-based
[5] = tested on: HCCLM3; test: Inhibition of cell migration in human HCCLM3 cells at 10 uM incubated for 24 hrs by wound healing assay; assay type: functional, cell-based
[6] = tested on: SK-HEP1; test: Inhibition of cell migration in human SK-HEP1 cells at 10 uM incubated for 24 hrs by transwell assay; assay type: functional, cell-based
[7] = species: Homo sapiens; test: Inhibition of recombinant human TRBP/recombinant human Dicer protein protein interaction at 25 uM by indirect-competition-ELISA
[8] = tested on: SK-HEP1; test: Antiproliferative activity against TARBP2-knockout human SK-HEP1 cells cultured as 3D cells assessed as inhibition of cell growth at 25 uM incubated for 72 hrs by CellTiter-Lumi assay; assay type: functional, cell-based
[9] = tested on: HCCLM3; test: Antiproliferative activity against TARBP2-knockout human HCCLM3 cells cultured as 3D cells assessed as inhibition of cell growth at 25 uM incubated for 72 hrs by CellTiter-Lumi assay; assay type: functional, cell-based
[10] = tested on: SK-HEP1; test: Antiproliferative activity against human SK-HEP1 cells cultured as 3D cells assessed as inhibition of cell growth at 25 uM incubated for 72 hrs by CellTiter-Lumi assay; assay type: functional, cell-based
[11] = tested on: HCCLM3; test: Antiproliferative activity against human HCCLM3 cells cultured as 3D cells assessed as inhibition of cell growth at 25 uM incubated for 72 hrs by CellTiter-Lumi assay; assay type: functional, cell-based
[12] = tested on: SK-HEP1; test: Inhibition of cell migration in human SK-HEP1 cells incubated for 24 hrs by transwell assay; assay type: functional, cell-based
[13] = tested on: HCCLM3; test: Inhibition of cell migration in human HCCLM3 cells incubated for 24 hrs by transwell assay; assay type: functional, cell-based
[14] = tested on: SK-HEP1; test: Inhibition of cell migration in TARBP2-knockout human SK-HEP1 cells at 1 to 25 uM incubated for 24 hrs by transwell assay; assay type: functional, cell-based; settings: dose 1-25 µM
[15] = tested on: HCCLM3; test: Inhibition of cell migration in TARBP2-knockout human HCCLM3 cells at 1 to 25 uM incubated for 24 hrs by transwell assay; assay type: functional, cell-based; settings: dose 1-25 µM
[16] = tested on: HCCLM3; test: Antiproliferative activity against human HCCLM3 cells assessed as downregulation of SMAD2 phosphorylation incubated for 24 hrs by Western blotting analysis; assay type: functional, cell-based
[17] = tested on: HCCLM3; test: Antiproliferative activity against human HCCLM3 cells assessed as downregulation of SMAD3 phosphorylation incubated for 24 hrs by Western blotting analysis; assay type: functional, cell-based
[18] = Acute toxicity in Kunming mouse assessed as animal death at 100 mg/kg,ip administration measured after 14 days; assay type: organism-based; settings: in vivo, 336 h, time 14 day
[19] = Acute toxicity in Kunming mouse assessed as body weight loss at 100 mg/kg,ip administration measured after 14 days; assay type: organism-based; settings: in vivo, 336 h, time 14 day
[20] = Acute toxicity in Kunming mouse assessed as effect on AST level in liver at 100 mg/kg,ip administration measured after 14 days; assay type: organism-based; settings: in vivo, 336 h, time 14 day
[21] = Acute toxicity in Kunming mouse assessed as effect on ALT level in liver at 100 mg/kg,ip administration measured after 14 days; assay type: organism-based; settings: in vivo, 336 h, time 14 day
[22] = Acute toxicity in Kunming mouse assessed as effect on total bilirubin level in liver at 100 mg/kg,ip administration measured after 14 days; assay type: organism-based; settings: in vivo, 336 h, time 14 day
[23] = Acute toxicity in Kunming mouse assessed as effect on direct bilirubin level in liver at 100 mg/kg,ip administration measured after 14 days; assay type: organism-based; settings: in vivo, 336 h, time 14 day
[24] = Acute toxicity in Kunming mouse assessed as effect on urea level in kidney at 100 mg/kg,ip administration measured after 14 days; assay type: organism-based; settings: in vivo, 336 h, time 14 day
[25] = Acute toxicity in Kunming mouse assessed as effect on uric acid level in kidney at 100 mg/kg,ip administration measured after 14 days; assay type: organism-based; settings: in vivo, 336 h, time 14 day
[26] = Acute toxicity in Kunming mouse assessed as effect on creatine kinase level in heart at 100 mg/kg,ip administration measured after 14 days; assay type: organism-based; settings: in vivo, 336 h, time 14 day
[27] = Acute toxicity in Kunming mouse assessed as pathological change in heart at 100 mg/kg,ip administration measured after 14 days by hematoxylin and eosin staining based microscopic analysis; assay type: organism-based; settings: in vivo, 336 h, time 14 day
[28] = Acute toxicity in Kunming mouse assessed as pathological change in spleen at 100 mg/kg,ip administration measured after 14 days by hematoxylin and eosin staining based microscopic analysis; assay type: organism-based; settings: in vivo, 336 h, time 14 day
[29] = Acute toxicity in Kunming mouse assessed as pathological change in lung at 100 mg/kg,ip administration measured after 14 days by hematoxylin and eosin staining based microscopic analysis; assay type: organism-based; settings: in vivo, 336 h, time 14 day
[30] = Acute toxicity in Kunming mouse assessed as pathological change in kidney at 100 mg/kg,ip administration measured after 14 days by hematoxylin and eosin staining based microscopic analysis; assay type: organism-based; settings: in vivo, 336 h, time 14 day
[31] = Half life in Sprague-Dawley rat at 25 mg/kg,po administration by LC-MS/MS analysis; assay type: ADME, organism-based; settings: in vivo
[32] = Tmax in Sprague-Dawley rat at 10 mg/kg,iv administration by LC-MS/MS analysis; assay type: ADME, organism-based; settings: in vivo
[33] = Tmax in Sprague-Dawley rat at 25 mg/kg,po administration by LC-MS/MS analysis; assay type: ADME, organism-based; settings: in vivo
[34] = Cmax in Sprague-Dawley rat at 10 mg/kg,iv administration by LC-MS/MS analysis; assay type: ADME, organism-based; settings: in vivo
[35] = Cmax in Sprague-Dawley rat at 25 mg/kg,po administration by LC-MS/MS analysis; assay type: ADME, organism-based; settings: in vivo
[36] = AUC (0 to t) in Sprague-Dawley rat at 10 mg/kg,iv administration by LC-MS/MS analysis; assay type: ADME, organism-based; settings: in vivo
[37] = AUC (0 to t) in Sprague-Dawley rat at 25 mg/kg,po administration by LC-MS/MS analysis; assay type: ADME, organism-based; settings: in vivo
[38] = AUC (0 to infinity) in Sprague-Dawley rat at 10 mg/kg,iv administration by LC-MS/MS analysis; assay type: ADME, organism-based; settings: in vivo
[39] = AUC (0 to infinity) in Sprague-Dawley rat at 25 mg/kg,po administration by LC-MS/MS analysis; assay type: ADME, organism-based; settings: in vivo
[40] = MRT (0 to t) in Sprague-Dawley rat at 10 mg/kg,iv administration by LC-MS/MS analysis; assay type: ADME, organism-based; settings: in vivo
[41] = MRT (0 to infinity) in Sprague-Dawley rat at 10 mg/kg,iv administration by LC-MS/MS analysis; assay type: ADME, organism-based; settings: in vivo
[42] = Clearance in Sprague-Dawley rat at 10 mg/kg,iv administration by LC-MS/MS analysis; assay type: ADME, organism-based; settings: in vivo
[43] = Volume of distribution at steady state in Sprague-Dawley rat at 10 mg/kg,iv administration by LC-MS/MS analysis; assay type: ADME, organism-based; settings: in vivo, read-out: Vdss
[44] = Oral bioavailability in Sprague-Dawley rat at 25 mg/kg administration by LC-MS/MS analysis; assay type: ADME, organism-based; settings: in vivo

CCOc1ccc(-c2nc(C)c(C(=O)O)s2)cc1
Activity [1]: Active | Activity [2]: Active | Activity [3]: Active | inhibition [4]: Active | inhibition [5]: Active | inhibition [6]: Active | inhibition [7]: Active | Activity [8]: inactive | Activity [9]: inactive | Activity [10]: Active | Activity [11]: Active | inhibition [12]: Dose-dependent-effect | inhibition [13]: Dose-dependent-effect | inhibition [14]: inactive | inhibition [15]: inactive | Activity [16]: Dose-dependent-effect | Activity [17]: Dose-dependent-effect | Activity [18]: Non-toxic | Activity [19]: Non-toxic | Activity [20]: Non-toxic | Activity [21]: Non-toxic | Activity [22]: Non-toxic | Activity [23]: Non-toxic | Activity [24]: Non-toxic | Activity [25]: Non-toxic | Activity [26]: Non-toxic | Activity [27]: Non-toxic | Activity [28]: Non-toxic | Activity [29]: Non-toxic | Activity [30]: Non-toxic | half-life [31]: 162 min | Tmax [32]: 6 min | Tmax [33]: 18 min | Cmax [34]: 34900 ng/mL | Cmax [35]: 2210 ng/mL | AUC(0-t) [36]: 9730 ng·h/mL | AUC(0-t) [37]: 2670 ng·h/mL | AUC(0-inf) [38]: 9740 ng·h/mL | AUC(0-inf) [39]: 3080 ng·h/mL | MRT last [40]: 6 min | MRT inf [41]: 12 min | clearance [42]: 17.1 mL/min/kg | Vd [43]: 0.161 L/kg | bioavailability [44]: 11%

Cc1nc(-c2ccc(N3CCOCC3)cc2)sc1C(=O)O
Activity [1]: Active | Activity [2]: Active | Activity [3]: Active | inhibition [4]: Active | inhibition [5]: Active | inhibition [6]: Active | inhibition [7]: Active | Activity [8]: inactive | Activity [9]: inactive | Activity [10]: Active | Activity [11]: Active | inhibition [12]: Dose-dependent-effect | inhibition [13]: Dose-dependent-effect | inhibition [14]: inactive | inhibition [15]: inactive | Activity [16]: Dose-dependent-effect | Activity [17]: Dose-dependent-effect | Activity [18]: Non-toxic | Activity [19]: Non-toxic | Activity [20]: Non-toxic | Activity [21]: Non-toxic | Activity [22]: Non-toxic | Activity [23]: Non-toxic | Activity [24]: Non-toxic | Activity [25]: Non-toxic | Activity [26]: Non-toxic | Activity [27]: Non-toxic | Activity [28]: Non-toxic | Activity [29]: Non-toxic | Activity [30]: Non-toxic | half-life [31]: 197 min | Tmax [32]: 4.8 min | Tmax [33]: 25.2 min | Cmax [34]: 45900 ng/mL | Cmax [35]: 19800 ng/mL | AUC(0-t) [36]: 37400 ng·h/mL | AUC(0-t) [37]: 50400 ng·h/mL | AUC(0-inf) [38]: 37500 ng·h/mL | AUC(0-inf) [39]: 50600 ng·h/mL | MRT last [40]: 102 min | MRT inf [41]: 108 min | clearance [42]: 4.6 mL/min/kg | Vd [43]: 0.496 L/kg | bioavailability [44]: 53.9%
